Read-outs that look alike come from different tables or passages of the source.
What was measured:
[1] = tested on: wild-type Mtb H37Rv; assay type: in vivo, 129sv DHP-1 knockout mice; conditions: for Log10 CFU per mouse (lungs), Mean: 50 mg/kg sc bid + clavulanate 100 mg/kg po bid, days 9-15, lungs day 16, untreated day 16 mean 9.1
[2] = female, 129sv DHP-1 knockout, mouse, in vivo
[3] = in vivo; conditions: female, 129sv DHP-1 knockout, mouse, sc, 50 mg/kg
[4] = 300 mg/kg sc, uninfected DHP-1 mice
[5] = in vivo; conditions: DHP-1 knockout, mouse, sc, 300 mg/kg
[6] = tested on: Mtb H37Rv; experiment: MIC90 against replicating (R) Mtb H37Rv, with or without clavulanate; assay type: cell-based, Mycobacterium tuberculosis; conditions: Table S4; for Mtb H37Rv R + CLAV (MIC90): clavulanate 4 μg/mL; for Mtb H37Rv R (MIC90): no clavulanate
[7] = tested on: Mtb H37Rv; experiment: MIC90 against nonreplicating (NR, 4-stress) Mtb H37Rv, with or without clavulanate; assay type: cell-based, Mycobacterium tuberculosis; conditions: 4-stress nonreplicating, Table S4; for Mtb H37Rv NR + CLAV (MIC90): clavulanate 4 μg/mL; for Mtb H37Rv NR (MIC90): no clavulanate
[8] = tested on: E. coli; experiment: Microbial spectrum, E. coli; assay type: cell-based, Escherichia coli; conditions: clavulanate 4 μg/mL; Table S4
[9] = tested on: P. aeruginosa; experiment: Microbial spectrum, P. aeruginosa; assay type: cell-based, Pseudomonas aeruginosa; conditions: clavulanate 4 μg/mL; Table S4
[10] = tested on: S. aureus; experiment: Microbial spectrum, S. aureus; assay type: cell-based, Staphylococcus aureus; conditions: clavulanate 4 μg/mL; Table S4
[11] = tested on: C. albicans; experiment: Microbial spectrum, C. albicans; assay type: cell-based, Candida albicans; conditions: no clavulanate; Table S4
[12] = In vitro plasma stability, human plasma; conditions: 2 μM, 37 °C, time point 120 min
[13] = In vitro plasma stability, SD rat plasma; conditions: 2 μM, 37 °C, time point 120 min
[14] = In vitro plasma stability, CD-1 mouse plasma; conditions: 2 μM, 37 °C, time point 120 min
[15] = In vitro plasma stability, beagle dog plasma; conditions: 2 μM, 37 °C, time point 120 min
[16] = Mouse PK in uninfected CD-1 mice (i.v. and p.o.)
[17] = tested on: Caco-2 cells; experiment: Caco-2 permeability / efflux transporter substrate; conditions: for Caco-2 Mean Papp A to B / Caco-2 Mean Papp B to A: 3 μM, pH 7.4, 120 min
[18] = In vitro plasma stability, cynomolgus monkey plasma; conditions: 2 μM, 37 °C, time point 120 min
[19] = tested on: plasma proteins; experiment: Plasma protein binding (equilibrium dialysis), human; conditions: 2 μM
[20] = tested on: plasma proteins; experiment: Plasma protein binding (equilibrium dialysis), SD rat; conditions: 2 μM
[21] = Stability in fasted simulated intestinal fluid (FaSSIF); conditions: 10 μM, pH 6.5, room temperature
[22] = tested on: plasma proteins; experiment: Plasma protein binding (equilibrium dialysis), beagle dog; conditions: 2 μM
[23] = tested on: plasma proteins; experiment: Plasma protein binding (equilibrium dialysis), CD-1 mouse; conditions: 2 μM
[24] = tested on: plasma proteins; experiment: Plasma protein binding (equilibrium dialysis), cynomolgus monkey; conditions: 2 μM
[25] = Stability in simulated gastric fluid (SGF); conditions: 10 μM, pH 1.2, room temperature

SMILES: C=CC1=C(C(=O)O)N2C(=O)[C@@H](NC(=O)/C(=N\O)c3csc(N)n3)[C@H]2SC1 [Cefdinir, reference compound]
- Log10 CFU per mouse (lungs), Mean [1]: 8.5 Log10 CFU
- effect on lung CFU (in words) ([1]; mouse, in vivo): lower lung CFU count compared to untreated mice
- Tlast [2]: 1.0 h
- AUC(0-t) [3]: 4630 ng·h/mL
- Cmax [3]: 8730 ng/mL
- Tmax [3]: 30 min

SMILES: NC(C(=O)N[C@@H]1C(=O)N2C(C(=O)O)=C(CSc3cccc[n+]3[O-])CS[C@H]12)c1ccc(O)cc1 (some centres unmarked) [TBBL-0000652]
- Log10 CFU per mouse (lungs), Mean [1]: 8.6 Log10 CFU
- reduction of lung CFU compared to untreated control mice ([1]; mouse, in vivo): ~0.5 log10
- Comments (tolerability) [4]: Recovered at t= 8h
- Tlast [4]: 2.0 to 4.0 h
- Tlast [2]: 3.0 h
- AUC(0-t) [5]: 29400 ± 32900 ng·h/mL
- Cmax [5]: 22200 ± 21700 ng/mL
- Tmax [5]: 60 to 120 min
- AUC(0-t) [3]: 11500 ng·h/mL
- Cmax [3]: 8320 ng/mL
- Tmax [3]: 60 min

SMILES: O=C(O)C1=C(CSc2cccc[n+]2[O-])CS[C@@H]2[C@H](NC(=O)C(F)c3ccccc3)C(=O)N12 (some centres unmarked) [TBBL-0000004]
- Mtb H37Rv R + CLAV (MIC90) [6]: 1.5 µM
- Mtb H37Rv R (MIC90) [6]: 1.2 µM
- Mtb H37Rv NR + CLAV (MIC90) [7]: 2.3 µM
- Mtb H37Rv NR (MIC90) [7]: 1.7 µM
- E.coli R + CLAV (MIC90) [8]: > 100 µM
- P.aeruginosa R + CLAV (MIC90) [9]: > 100 µM
- S.aureus R + CLAV (MIC90) [10]: 1.4 µM
- C.albicans R (MIC90) [11]: > 100 µM
- Plasma stability % Remaining, Human [12]: 81.0%
- Plasma stability % Remaining, Rat [13]: 71.0%
- Plasma stability % Remaining, Mouse [14]: 84.1%
- Plasma stability % Remaining, Dog [15]: 64.1%
- AUC[0-5h] ([16]; i.v. dosing (5 mg/kg)): 5075 ng·h/mL
- Vd ([16]; i.v. dosing (5 mg/kg)): 1.02 L/kg
- clearance ([16]; i.v. dosing (5 mg/kg)): 16.4 mL/min/kg
- half-life ([16]; i.v. dosing (5 mg/kg)): 32.4 min
- k el ([16]; i.v. dosing (5 mg/kg)): 0.96 h⁻¹
- Caco-2 Mean Papp A to B [17]: < 0.12 10-6 cm/s
- Caco-2 Mean Papp B to A [17]: < 0.11 10-6 cm/s
- Caco-2 Mean Recovery % A to B ([17]; Caco-2): < 98.09%
- Caco-2 Mean Recovery % B to A ([17]; Caco-2): < 112.70%
- Caco-2 Rank Papp ([17]; Caco-2): Low
- Plasma stability % Remaining, Monkey [18]: 103.9%
- % bound to plasma, Human [19]: 74.1%
- % bound to plasma, SD Rat [20]: 62.0%
- FaSSIF Stability, % remaining, 6h [21]: 88.58%
- FaSSIF Stability, % remaining, 24h [21]: 94.96%
- % bound to plasma, Beagle Dog [22]: 59.2%
- % bound to plasma, CD-1 Mouse [23]: 65.5%
- % bound to plasma, Cynomolgus Monkey [24]: 78.2%

SMILES: CCc1nnc(SCC2=C(C(=O)O)N3C(=O)[C@@H](NC(=O)Cc4ccc(C5=NCCN5)cc4)[C@H]3SC2)s1 [TBBL-0000310]
- Mtb H37Rv R + CLAV (MIC90) [6]: 0.5 µM
- Mtb H37Rv R (MIC90) [6]: 16.4 µM
- Mtb H37Rv NR + CLAV (MIC90) [7]: 92.2 µM
- Mtb H37Rv NR (MIC90) [7]: 90.4 µM
- E.coli R + CLAV (MIC90) [8]: 49.9 µM
- P.aeruginosa R + CLAV (MIC90) [9]: > 100 µM
- S.aureus R + CLAV (MIC90) [10]: 0.9 µM
- C.albicans R (MIC90) [11]: > 100 µM
- Plasma stability % Remaining, Human [12]: 78.9%
- Plasma stability % Remaining, Rat [13]: 80.0%
- SGF Stability, % remaining, 1h ([25]; 1 h): 86.27%
- SGF Stability, % remaining, 24h ([25]; 24 h): 0.61%
- Plasma stability % Remaining, Mouse [14]: 82.2%
- Plasma stability % Remaining, Dog [15]: 79.6%
- AUC[0-5h] ([16]; i.v. dosing (5 mg/kg)): 39113 ng·h/mL
- Vd ([16]; i.v. dosing (5 mg/kg)): 0.09 L/kg
- clearance ([16]; i.v. dosing (5 mg/kg)): 2.13 mL/min/kg
- half-life ([16]; i.v. dosing (5 mg/kg)): 28.8 min
- k el ([16]; i.v. dosing (5 mg/kg)): 1.45 h⁻¹
- AUC[0-5h] ([16]; p.o. dosing (25 mg/kg)): 614 ng·h/mL
- bioavailability ([16]; p.o. dosing (25 mg/kg)): 0.34%
- Caco-2 Mean Papp A to B [17]: 0.46 10-6 cm/s
- Caco-2 Mean Papp B to A [17]: 0.43 10-6 cm/s
- Caco-2 Efflux Ratio ([17]; Caco-2): 0.94
- Caco-2 Mean Recovery % A to B ([17]; Caco-2): 99.13%
- Caco-2 Mean Recovery % B to A ([17]; Caco-2): 102.93%
- Caco-2 Rank Papp ([17]; Caco-2): Low
- Efflux Transporter Substrate ([17]; Caco-2): Poor or no
- Plasma stability % Remaining, Monkey [18]: 110.3%
- % bound to plasma, Human [19]: 60.7%
- % bound to plasma, SD Rat [20]: 81.2%
- FaSSIF Stability, % remaining, 6h [21]: 98.8%
- FaSSIF Stability, % remaining, 24h [21]: 95.07%
- % bound to plasma, Beagle Dog [22]: 30.5%
- % bound to plasma, CD-1 Mouse [23]: 49.9%
- % bound to plasma, Cynomolgus Monkey [24]: 56.2%

Source: publication PMC8922279, “Identification of β-Lactams Active against Mycobacterium tuberculosis by a Consortium of Pharmaceutical Companies and Academic Institutions” (ACS Infectious Diseases, 2022)
